The supplement of paper PMC10307832

Tests used:
Experiment in all cases: relative viability (nuclei count vs DMSO), 5 days (fraction); higher = more cells survive
[1] = tested on: CAL-12T
Summary of the method: (§1)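 Relative viability divides the nuclei count in treated wells by that in vehicle wells. Lung cancer cell lines were seeded in 1536-well plates, dosed by pin tool the next day, and fixed and stained after 5 days in one step with final 0.05% Triton X-100, 1% formaldehyde and 1 ug/ml Hoechst. Dosing was a single drug or a fixed anchor-drug dose plus five library-drug doses (not always all listed) in √10 steps, and values are medians of duplicate plates imaged at 4×.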

[2] = tested on: NCI-H2085
Summary of the method: as §1

[3] = tested on: NCI-H2170
Summary of the method: as §1

[4] = tested on: NCI-H1651
Summary of the method: as §1

[5] = tested on: SK-MES-1
Summary of the method: as §1

[6] = tested on: NCI-H1355
Summary of the method: as §1

[7] = tested on: BEN
Summary of the method: as §1

[8] = tested on: NCI-H2087
Summary of the method: as §1

[9] = tested on: NCI-H520
Summary of the method: as §1

[10] = tested on: HCC-44
Summary of the method: as §1

[11] = tested on: LXF-289
Summary of the method: as §1

[12] = tested on: NCI-H1666
Summary of the method: as §1

[13] = tested on: NCI-H1755
Summary of the method: as §1

[14] = tested on: NCI-H460
Summary of the method: as §1

[15] = tested on: LU99A
Summary of the method: as §1

[16] = tested on: PC-14
Summary of the method: as §1

[17] = tested on: NCI-H1993
Summary of the method: as §1

[18] = tested on: COR-L23
Summary of the method: as §1

[19] = tested on: NCI-H1563
Summary of the method: as §1

[20] = tested on: NCI-H1437
Summary of the method: as §1

[21] = tested on: NCI-H1650
Summary of the method: as §1

[22] = tested on: NCI-H1792
Summary of the method: as §1

CN1CCN(CCOc2cc(OC3CCOCC3)c3c(Nc4c(Cl)ccc5c4OCO5)ncnc3c2)CC1 [Saracatinib] + CCNC(=O)c1noc(-c2cc(C(C)C)c(O)cc2O)c1-c1ccc(CN2CCOCC2)cc1 [Luminespib] (partner 0.01 µM)
relative viability ([1]; first compound 0.02 µM): 0.335 | relative viability ([1]; first compound 0.2 µM): 0.407 | relative viability ([1]; first compound 0.6325 µM): 0.365 | relative viability ([1]; first compound 2 µM): 0.268 | relative viability ([2]; first compound 0.02 µM): 0.411 | relative viability ([2]; first compound 0.2 µM): 0.347 | relative viability ([2]; first compound 0.6325 µM): 0.481 | relative viability ([2]; first compound 2 µM): 0.429 | relative viability ([3]; first compound 0.02 µM): 0.658 | relative viability ([3]; first compound 0.2 µM): 0.596 | relative viability ([3]; first compound 0.6325 µM): 0.477 | relative viability ([3]; first compound 2 µM): 0.337 | relative viability ([4]; first compound 0.02 µM): 0.912 | relative viability ([4]; first compound 0.2 µM): 0.516 | relative viability ([4]; first compound 0.6325 µM): 0.965 | relative viability ([4]; first compound 2 µM): 0.837 | relative viability ([5]; first compound 0.02 µM): 0.627 | relative viability ([5]; first compound 0.2 µM): 0.828 | relative viability ([5]; first compound 0.6325 µM): 0.348 | relative viability ([5]; first compound 2 µM): 0.207 | relative viability ([6]; first compound 0.02 µM): 0.732 | relative viability ([6]; first compound 0.2 µM): 0.544 | relative viability ([6]; first compound 0.6325 µM): 0.697 | relative viability ([6]; first compound 2 µM): 0.634 | relative viability ([7]; first compound 0.02 µM): 0.421 | relative viability ([7]; first compound 0.6325 µM): 0.418 | relative viability ([7]; first compound 2 µM): 0.401 | relative viability ([8]; first compound 0.02 µM): 0.143 | relative viability ([8]; first compound 0.2 µM): 0.18 | relative viability ([8]; first compound 0.6325 µM): 0.166 | relative viability ([8]; first compound 2 µM): 0.253 | relative viability ([9]; first compound 0.02 µM): 0.213 | relative viability ([9]; first compound 0.6325 µM): 0.221 | relative viability ([9]; first compound 2 µM): 0.204 | relative viability ([10]; first compound 0.02 µM): 0.972 | relative viability ([10]; first compound 0.2 µM): 0.921 | relative viability ([10]; first compound 0.6325 µM): 1.32 | relative viability ([10]; first compound 2 µM): 0.952 | relative viability ([11]; first compound 0.02 µM): 0.619 | relative viability ([11]; first compound 0.2 µM): 0.633 | relative viability ([11]; first compound 0.6325 µM): 0.796 | relative viability ([11]; first compound 2 µM): 0.585 | relative viability ([12]; first compound 0.02 µM): 1.01 | relative viability ([12]; first compound 0.2 µM): 1.09 | relative viability ([12]; first compound 0.6325 µM): 1.4 | relative viability ([12]; first compound 2 µM): 1.15 | relative viability ([13]; first compound 0.02 µM): 0.456 | relative viability ([13]; first compound 0.2 µM): 0.329 | relative viability ([13]; first compound 0.6325 µM): 0.447 | relative viability ([13]; first compound 2 µM): 0.414 | relative viability ([14]; first compound 0.02 µM): 0.0378 | relative viability ([14]; first compound 0.2 µM): 0.0238 | relative viability ([14]; first compound 0.6325 µM): 0.0253 | relative viability ([14]; first compound 2 µM): 0.0287 | relative viability ([15]; first compound 0.02 µM): 0.214 | relative viability ([15]; first compound 0.2 µM): 0.203 | relative viability ([15]; first compound 0.6325 µM): 0.26 | relative viability ([15]; first compound 2 µM): 0.232 | relative viability ([16]; first compound 0.02 µM): 0.175 | relative viability ([16]; first compound 0.2 µM): 0.183 | relative viability ([16]; first compound 0.6325 µM): 0.173 | relative viability ([16]; first compound 2 µM): 0.227 | relative viability ([17]; first compound 0.02 µM): 0.907 | relative viability ([17]; first compound 0.2 µM): 0.716 | relative viability ([17]; first compound 0.6325 µM): 0.783 | relative viability ([17]; first compound 2 µM): 0.561 | relative viability ([18]; first compound 0.02 µM): 0.694 | relative viability ([18]; first compound 0.2 µM): 0.605 | relative viability ([18]; first compound 0.6325 µM): 0.575 | relative viability ([18]; first compound 2 µM): 0.558 | relative viability ([19]; first compound 0.02 µM): 0.481 | relative viability ([19]; first compound 0.2 µM): 0.488 | relative viability ([19]; first compound 0.6325 µM): 0.537 | relative viability ([19]; first compound 2 µM): 0.525 | relative viability ([20]; first compound 0.02 µM): 1.13 | relative viability ([20]; first compound 0.2 µM): 1.13 | relative viability ([20]; first compound 0.6325 µM): 1.17 | relative viability ([20]; first compound 2 µM): 1.14 | relative viability ([21]; first compound 0.02 µM): 0.188 | relative viability ([21]; first compound 0.2 µM): 0.187 | relative viability ([21]; first compound 0.6325 µM): 0.188 | relative viability ([21]; first compound 2 µM): 0.221 | relative viability ([22]; first compound 0.02 µM): 0.369 | relative viability ([22]; first compound 0.2 µM): 0.463 | relative viability ([22]; first compound 0.6325 µM): 0.449 | relative viability ([22]; first compound 2 µM): 0.358

CN1CCN(CCOc2cc(OC3CCOCC3)c3c(Nc4c(Cl)ccc5c4OCO5)ncnc3c2)CC1 [Saracatinib] + COc1cccc2cc(-c3nc([C@H]4CC[C@H](C(=O)O)CC4)n4ncnc(N)c34)[nH]c12 [OSI-027] (partner 0.5 µM)
relative viability ([1]; first compound 0.02 µM): 0.734 | relative viability ([1]; first compound 0.2 µM): 0.677 | relative viability ([1]; first compound 0.6325 µM): 1.08 | relative viability ([1]; first compound 2 µM): 0.57 | relative viability ([2]; first compound 0.02 µM): 0.839 | relative viability ([2]; first compound 0.2 µM): 0.723 | relative viability ([2]; first compound 0.6325 µM): 0.772 | relative viability ([2]; first compound 2 µM): 0.78 | relative viability ([3]; first compound 0.02 µM): 0.694 | relative viability ([3]; first compound 0.2 µM): 0.459 | relative viability ([3]; first compound 0.6325 µM): 0.811 | relative viability ([3]; first compound 2 µM): 0.53 | relative viability ([4]; first compound 0.02 µM): 0.694 | relative viability ([4]; first compound 0.2 µM): 0.657 | relative viability ([4]; first compound 0.6325 µM): 0.81 | relative viability ([4]; first compound 2 µM): 0.485 | relative viability ([5]; first compound 0.02 µM): 0.609 | relative viability ([5]; first compound 0.2 µM): 0.603 | relative viability ([5]; first compound 0.6325 µM): 0.475 | relative viability ([5]; first compound 2 µM): 0.234 | relative viability ([6]; first compound 0.02 µM): 0.482 | relative viability ([6]; first compound 0.2 µM): 0.379 | relative viability ([6]; first compound 0.6325 µM): 0.427 | relative viability ([6]; first compound 2 µM): 0.323 | relative viability ([7]; first compound 0.02 µM): 0.284 | relative viability ([7]; first compound 0.6325 µM): 0.309 | relative viability ([7]; first compound 2 µM): 0.261 | relative viability ([8]; first compound 0.02 µM): 0.609 | relative viability ([8]; first compound 0.2 µM): 0.393 | relative viability ([8]; first compound 0.6325 µM): 0.953 | relative viability ([8]; first compound 2 µM): 0.742 | relative viability ([9]; first compound 0.02 µM): 0.191 | relative viability ([9]; first compound 0.6325 µM): 0.262 | relative viability ([9]; first compound 2 µM): 0.176 | relative viability ([10]; first compound 0.02 µM): 0.483 | relative viability ([10]; first compound 0.2 µM): 0.522 | relative viability ([10]; first compound 0.6325 µM): 0.592 | relative viability ([10]; first compound 2 µM): 0.543 | relative viability ([11]; first compound 0.02 µM): 0.765 | relative viability ([11]; first compound 0.2 µM): 0.735 | relative viability ([11]; first compound 0.6325 µM): 0.744 | relative viability ([11]; first compound 2 µM): 0.677 | relative viability ([12]; first compound 0.02 µM): 0.914 | relative viability ([12]; first compound 0.2 µM): 0.863 | relative viability ([12]; first compound 0.6325 µM): 1.2 | relative viability ([12]; first compound 2 µM): 1.07 | relative viability ([13]; first compound 0.02 µM): 0.691 | relative viability ([13]; first compound 0.2 µM): 0.643 | relative viability ([13]; first compound 0.6325 µM): 0.706 | relative viability ([13]; first compound 2 µM): 0.634 | relative viability ([14]; first compound 0.02 µM): 0.656 | relative viability ([14]; first compound 0.2 µM): 0.394 | relative viability ([14]; first compound 0.6325 µM): 0.623 | relative viability ([14]; first compound 2 µM): 0.376 | relative viability ([15]; first compound 0.02 µM): 0.317 | relative viability ([15]; first compound 0.2 µM): 0.283 | relative viability ([15]; first compound 0.6325 µM): 0.303 | relative viability ([15]; first compound 2 µM): 0.277 | relative viability ([16]; first compound 0.02 µM): 0.81 | relative viability ([16]; first compound 0.2 µM): 0.406 | relative viability ([16]; first compound 0.6325 µM): 0.151 | relative viability ([16]; first compound 2 µM): 0.0888 | relative viability ([17]; first compound 0.02 µM): 0.54 | relative viability ([17]; first compound 0.2 µM): 0.508 | relative viability ([17]; first compound 0.6325 µM): 0.497 | relative viability ([17]; first compound 2 µM): 0.525 | relative viability ([18]; first compound 0.02 µM): 0.698 | relative viability ([18]; first compound 0.2 µM): 0.684 | relative viability ([18]; first compound 0.6325 µM): 0.746 | relative viability ([18]; first compound 2 µM): 0.641 | relative viability ([19]; first compound 0.02 µM): 0.703 | relative viability ([19]; first compound 0.2 µM): 0.663 | relative viability ([19]; first compound 0.6325 µM): 0.645 | relative viability ([19]; first compound 2 µM): 0.711 | relative viability ([20]; first compound 0.02 µM): 0.913 | relative viability ([20]; first compound 0.2 µM): 0.671 | relative viability ([20]; first compound 0.6325 µM): 0.96 | relative viability ([20]; first compound 2 µM): 0.812 | relative viability ([21]; first compound 0.02 µM): 0.611 | relative viability ([21]; first compound 0.2 µM): 0.396 | relative viability ([21]; first compound 0.6325 µM): 0.524 | relative viability ([21]; first compound 2 µM): 0.254 | relative viability ([22]; first compound 0.02 µM): 0.771 | relative viability ([22]; first compound 0.2 µM): 0.462 | relative viability ([22]; first compound 0.6325 µM): 0.809 | relative viability ([22]; first compound 2 µM): 0.558
